# Test results as given in ChEMBL document CHEMBL1139034, “Synthesis and antihyperglycemic evaluation of various protoberberine derivatives” (2006).
# The source made the active and inactive calls. No cut-off for these calls is given here.
# What was measured:
# [1] = molecular target: Sulfonylurea receptor 1, Kir6.2 (Homo sapiens) (UniProt Q14654+Q09428); experiment: Binding affinity to sulfonylurea receptor in pancreatic islet beta cell membranes
# [2] = test system: Escherichia coli; experiment: Antibacterial activity against Escherichia coli upto 50 ug/mL; format: functional, organism-based
# [3] = Reduction of blood glucose level in alloxan induced diabetic mice at 200 mg/kg; format: functional, organism-based; parameters: dose 200 mg/kg; details: Mus musculus, target entry is the homologue from another species
# [4] = test system: Escherichia coli; experiment: Antibacterial activity against Escherichia coli; format: functional
SMILES,Activity [1],Activity [2],Activity [3],MIC [4]
COc1ccc2c(c1OC)C[N+]1([O-])CCc3cc4c(cc3C1C2)OCO4 (stereo unspecified),Active,inactive,23 mg/dL,
COc1cc2c(cc1OC)-c1cc3ccc(OC)c(OC)c3c[n+]1CC2,inactive,inactive,,
COc1cccc2cc3[n+](cc12)CCc1cc2c(cc1-3)OCO2,inactive,inactive,,
COc1ccc2cc3[n+](cc2c1OC)CCc1cc(O)c(O)cc1-3,inactive,inactive,,
COc1ccc2c(c1OC)C[N+]1(C)CCc3cc4c(cc3C1C2)OCO4 (stereo unspecified),inactive,inactive,,
c1ccc(COc2ccc3c[n+]4c(cc3c2)-c2cc3c(cc2CC4)OCO3)cc1,inactive,inactive,,
COc1ccc2c[n+]3c(cc2c1)-c1cc2c(cc1CC3)OCO2,inactive,inactive,,
CC[N+]12CCc3cc4c(cc3C1Cc1ccc(OC)c(OC)c1C2)OCO4 (stereo unspecified),inactive,inactive,,
COc1ccc2c(c1)C(=O)N(CCc1ccc(S(=O)(=O)NC(=O)NC3CCCCC3)cc1)C(=O)C2(C)C,Active,,162 mg/dL,
c1ccc(C[N+]23CCc4cc5c(cc4C2Cc2ccccc2C3)OCO5)cc1 (stereo unspecified),Active,inactive,,
COc1ccc2cc3[n+](cc2c1O)CCc1cc2c(cc1-3)OCO2,Active,inactive,12 mg/dL,
COc1ccc2c(c1OC)C[N+]1(Cc3ccccc3)CCc3cc4c(cc3C1C2)OCO4 (stereo unspecified),Active,inactive,146 mg/dL,
c1ccc2c(c1)CC1c3cc4c(cc3CCN1C2)OCO4 (stereo unspecified),inactive,inactive,,
COc1ccc2cc3[n+](cc2c1OC)CCc1cc(OC(C)=O)c(OC(C)=O)cc1-3,inactive,inactive,,
c1ccc2c[n+]3c(cc2c1)-c1cc2c(cc1CC3)OCO2,Active,inactive,67 mg/dL,
COc1ccc2c(c1OC)CN1CCc3cc4c(cc3[C@@H]1C2)OCO4,inactive,inactive,,
COc1ccc2cc3[n+](cc2c1OC)CCc1cc2c(cc1-3)OCO2.[Cl-] [BERBERINE CHLORIDE],Active,,61 mg/dL,5 µg/mL
COc1ccc2cc3[n+](cc2c1)CCc1cc2c(cc1-3)OCO2,inactive,inactive,,
